Laboratory results: BigSolDB 2.1

Cc1nc(N)nc(N)n1
solubility (mole fraction)
Conditions	283.15 K	288.15 K	293.15 K	298.15 K	303.15 K	308.15 K	313.15 K	318.15 K	323.15 K
in 1,4-dioxane	0.000584	0.000676	0.000782	0.000899	0.00107	0.00126	0.00152	0.00177	0.00205
in DMF	0.00103	0.0012	0.00133	0.00151	0.0018	0.00209	0.00247	0.00283	0.00325
in acetonitrile	9.52e-05	0.000117	0.000141	0.00018	0.000228	0.000287	0.000345	0.000426	0.000523
in ethanol	0.000226	0.000258	0.000315	0.000386	0.000485	0.000592	0.000688	0.000845	0.000999
in ethyl acetate	0.000671	0.00078	0.000928	0.00104	0.00125	0.00142	0.00171	0.00198	0.00229
in ethylene glycol	0.000797	0.000935	0.00109	0.00121	0.00145	0.00164	0.00193	0.00225	0.00259
in isobutanol	0.000392	0.000454	0.000551	0.000663	0.000792	0.000931	0.0011	0.00127	0.00153
in isopropanol	0.00027	0.000325	0.000393	0.00047	0.000587	0.000698	0.000808	0.000973	0.00115
in methanol	0.000159	0.000192	0.000235	0.000289	0.000365	0.000434	0.000553	0.000636	0.000782
in n-butanol	0.000477	0.000536	0.00064	0.000764	0.000919	0.00111	0.00131	0.0015	0.00177
in n-propanol	0.000321	0.000385	0.000452	0.00054	0.000689	0.000836	0.000985	0.00115	0.00132
in water	0.000122	0.000146	0.000182	0.000228	0.000285	0.000362	0.000426	0.000521	0.000633
